± gives the expanded uncertainty stated by the source.
Conditions: Liquid; for speed of sound: Pulse-echo method; for mass density: Vibrating tube method

CCCCCCCCCCCCCCCCCCc1ccccc1 [octadecylbenzene]
Conditions | mass density, 313.15 K [kg/m3] | mass density, 323.15 K [kg/m3] | mass density, 333.15 K [kg/m3] | mass density, 343.15 K [kg/m3] | speed of sound, 313.15 K [m/s] | speed of sound, 323.15 K [m/s] | speed of sound, 333.15 K [m/s] | speed of sound, 343.15 K [m/s]
100 kPa | 840.55 ± 1.2 | 833.94 ± 1.2 | 827.32 ± 1.2 | 820.78 ± 1.2 | 1392.9 ± 3.5 | 1357.8 ± 3.4 | 1325.5 ± 3.4 | 1292.7 ± 3.3
5000 kPa | 843.37 ± 1.2 | 836.91 ± 1.2 | 830.4 ± 1.2 | 824.1 ± 1.2 | – | – | – | –
10000 kPa | 846.27 ± 1.2 | 840.02 ± 1.2 | 833.56 ± 1.2 | 827.33 ± 1.2 | 1439.6 ± 3.6 | 1406.8 ± 3.5 | 1374.8 ± 3.5 | 1344.1 ± 3.4
15000 kPa | 849.15 ± 1.2 | 842.88 ± 1.2 | 836.59 ± 1.2 | 830.48 ± 1.2 | – | – | – | –
20000 kPa | – | – | – | – | 1484.1 ± 3.6 | 1452.4 ± 3.6 | 1422.6 ± 3.5 | 1392.8 ± 3.5
25000 kPa | 854.46 ± 1.2 | 848.32 ± 1.2 | 842.3 ± 1.2 | 836.54 ± 1.2 | – | – | – | –
30000 kPa | 856.89 ± 1.2 | 850.96 ± 1.2 | 845.04 ± 1.2 | 839.35 ± 1.2 | 1525.8 ± 3.7 | 1495.5 ± 3.7 | 1466.1 ± 3.6 | 1437.7 ± 3.6
35000 kPa | 859.36 ± 1.2 | 853.46 ± 1.2 | 847.71 ± 1.2 | 841.97 ± 1.2 | – | – | – | –
40000 kPa | 861.48 ± 1.3 | 856 ± 1.3 | 850.3 ± 1.2 | 844.62 ± 1.2 | 1564.8 ± 3.8 | 1535.6 ± 3.7 | 1507.5 ± 3.7 | 1480.2 ± 3.6
45000 kPa | 864.12 ± 1.3 | 858.41 ± 1.3 | 852.76 ± 1.3 | 847.32 ± 1.2 | – | – | – | –
50000 kPa | 866.37 ± 1.3 | 860.91 ± 1.3 | 855.26 ± 1.3 | 849.82 ± 1.3 | 1602.4 ± 3.8 | 1574 ± 3.8 | 1546.7 ± 3.7 | 1519.9 ± 3.7
55000 kPa | 868.59 ± 1.3 | 863.12 ± 1.3 | 857.46 ± 1.3 | 852.25 ± 1.3 | – | – | – | –
60000 kPa | 870.16 ± 1.3 | 865.36 ± 1.3 | 859.86 ± 1.3 | 854.6 ± 1.3 | 1638.1 ± 3.9 | 1610.3 ± 3.9 | 1583.5 ± 3.8 | 1558.1 ± 3.8
70000 kPa | – | – | – | – | 1672.1 ± 4 | 1645.1 ± 3.9 | 1619.1 ± 3.9 | –
80000 kPa | – | – | – | – | 1704.7 ± 4 | 1678.7 ± 4 | 1652.8 ± 3.9 | –
90000 kPa | – | – | – | – | – | 1710.4 ± 4 | 1685.7 ± 4 | –
100000 kPa | – | – | – | – | – | 1741.3 ± 4.1 | 1717 ± 4 | –
110000 kPa | – | – | – | – | – | 1771.2 ± 4.1 | 1747.3 ± 4.1 | –
120000 kPa | – | – | – | – | – | 1799.2 ± 4.2 | 1775.7 ± 4.1 | –
130000 kPa | – | – | – | – | – | – | 1803.9 ± 4.2 | –
140000 kPa | – | – | – | – | – | – | 1830.9 ± 4.2 | –
150000 kPa | – | – | – | – | – | – | 1857.5 ± 4.3 | –
